Laboratory results reported in patent US11679107B2 (Eisai R&D Management Co., Ltd., priority 2018, dated 2023).
Like-named read-outs stand apart in the source and are kept apart here.

Tests used:
[1] = system: Ad2 variant pre-mRNAs spliced in HeLa S3 nuclear extracts; test: In vitro splicing assay (IVS), RT-qPCR of spliced product; type: biochemical; conditions: for IC50: geometric mean; for Ratio Ad2.1/2.2: ratio of IVS IC50 Ad2.1 to Ad2.2
Procedure, shortened: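 Read-out is one-step TaqMan RT-qPCR of spliced Ad2 mRNA with Ftz as reference, normalized to DMSO and fit by non-linear regression. Reactions held HeLa S3 nuclear extract, 2 ng Ad2-derived pre-mRNA and test compound, with 15 min preincubation. Splicing was started with ATP-containing activation buffer and run 90 min at 30 °C.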

SF3b complexes = molecular target: T1, SF3b complexes (Homo sapiens, UniProt O75533+Q7RTV0); test: Scintillation proximity assay (SPA) with [3H]-labelled pladienolide probe; type: binding; conditions: SF3B1 (WT); geometric mean; read-out: SPA-ATS GMean IC50 (nM) SF3B1 (WT)
T1 construct: endogenous in cells; host or cells: Nuclear extracts; A HeLa S3 extract preparation is described for the in vitro splicing assay
Procedure, shortened: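 SF3b complexes captured from nuclear extracts on anti-SF3B1 antibody SPA beads; test compounds pre-incubated 30 min before 2.5 nM [3H]-pladienolide probe added, then 30 min incubation. Bound probe read by scintillation; values from non-linear regression of concentration–response curves.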

[2] = system: NCI-H1568 cells (high MCL1); test: Cell proliferation and viability, CellTiter-Glo, 72 hours; type: cell-based; conditions: for GI50: geometric mean
Procedure, shortened: (§1)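 ATP luminescence (CellTiter-Glo) was measured 72 h after treatment with compound at 10 μM–100 pM (11 points, half-log) in 0.1% DMSO. The Panc line was grown in RPMI-1640 plus insulin and 15% FBS, the other in 10% FBS. Data were normalised to time zero and vehicle controls, where −100% is cidal and 0% static.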

[3] = system: Panc 05.04 cells (SF3b K700E mutant); test: as above; type: cell-based; conditions: for GI50: geometric mean
Procedure, shortened: as §1

[4] = Ad2.1 pre-mRNA substrate, read-out: qPCR-IVS-ATS GMean IC50 (nM) Ad2.1
[5] = Ad2.2 pre-mRNA substrate, read-out: qPCR-IVS-ATS GMean IC50 (nM) Ad2.2
[6] = NCI-H1568, read-out: CTGlo-ATS GMean GI50 (nM) 72 h NCIH1568.1, NCIH1568.1 cells, 72 h
[7] = NCIH1568.1 cells, 72 h, −100% cidal, 0% static, 100% maximal growth
[8] = PANC0504.1 cells, 72 h, −100% cidal, 0% static, 100% maximal growth
[9] = Panc 05.04, read-out: CTGlo-ATS GMean GI50 (nM) 72 h PANC0504.1, PANC0504.1 cells, 72 h
[10] = 72 h, NCIH1568.1, -100% = cidal, 0% = static, 100% = uninhibited growth
[11] = 72 h, PANC0504.1, -100% = cidal, 0% = static, 100% = uninhibited growth

Structure (SMILES): C/C(=C\c1cc(F)cc(N2CCN(C(=O)C3CC3)CC2)c1)[C@H]1OC(=O)C[C@H](O)CC[C@H](C)[C@@H](OC(=O)N2CCN(C)CC2)/C=C/[C@@H]1C [Compound 109]
- IC50 [1, 4]: 26.5 nM
- IC50 [1, 5]: 14 nM
- IC50 (SF3b complexes): 2.85 nM
- GI50 [2, 6]: 2 nM
- CTGlo-ATS Mean MinResponse % 72 h NCIH1568.1 [2, 7]: −84.780%
- CTGlo-ATS Mean MinResponse % 72 h PANC0504.1 [3, 8]: −84.673%
- GI50 [3, 9]: 3.55 nM

Structure (SMILES): C/C(=C\c1cc(F)cc(N2CCOC[C@@H]2C)c1)[C@H]1OC(=O)C[C@H](O)CC[C@H](C)[C@@H](OC(=O)N2CCN(C)CC2)/C=C/[C@@H]1C [Compound 83]
- IC50 [1, 4]: 159 nM
- IC50 [1, 5]: 49 nM
- IC50 (SF3b complexes): 4.57 nM
- GI50 [2, 6]: 17.3 nM
- CTGlo-ATS Mean MinResponse % 72 h NCIH1568.1 [2, 7]: −68.447%
- CTGlo-ATS Mean MinResponse % 72 h PANC0504.1 [3, 8]: −94.723%
- GI50 [3, 9]: 15.6 nM

Structure (SMILES): C/C(=C\c1cc(F)cc(N2CCN(C(=O)Cn3cccn3)CC2)c1)[C@H]1OC(=O)C[C@H](O)CC[C@H](C)[C@@H](OC(=O)N2CCN(C)CC2)/C=C/[C@@H]1C [Compound 122]
- IC50 [1, 4]: 18.8 nM
- IC50 [1, 5]: 14.3 nM
- IC50 (SF3b complexes): 5.5 nM
- GI50 [2, 6]: 2 nM
- CTGlo-ATS Mean MinResponse % 72 h NCIH1568.1 [2, 7]: −85.128%
- CTGlo-ATS Mean MinResponse % 72 h PANC0504.1 [3, 8]: −70.057%
- GI50 [3, 9]: 2.1 nM

Structure (SMILES): C/C(=C\c1cc(F)cc(N2CCOCC2)c1)[C@H]1OC(=O)C[C@H](O)CC[C@H](C)[C@@H](OC(=O)NCCCN2CCOCC2)/C=C/[C@@H]1C [Compound 241, [(2S,3S,4E,6R,7S,10R)-2-[(E)-1-(3-fluoro-5-morpholin-4-ylphenyl)prop-1-en-2-yl]-10-hydroxy-3,7-dimethyl-12-oxo-1-oxacyclododec-4-en-6-yl] N-(3-morpholin-4-ylpropyl)carbamate]
- IC50 [1, 4]: > 25000 nM
- IC50 [1, 5]: 130 nM
- Ratio Ad2.1/2.2 [1]: 191.917
- IC50 (SF3b complexes): 20.5 nM
- CTGlo-ATS Mean MinResponse % 72 h NCIH1568.1 [2, 10]: −59.521%
- GI50 ([2]; NCI-H1568, 72 h, read-out: CTGlo-ATS GMean GI50 (nM) 72 h NCIH1568.1, 72 h, NCIH1568.1): 225 nM
- CTGlo-ATS Mean MinResponse % 72 h PANC0504.1 [3, 11]: −88.873%
- GI50 ([3]; Panc 05.04, 72 h, read-out: CTGlo-ATS GMean GI50 (nM) 72 h PANC0504.1, 72 h, PANC0504.1): 120 nM

Structure (SMILES): C/C(=C\c1cccc(S(=O)(=O)N2CCC(O)CC2)c1)[C@H]1OC(=O)C[C@H](O)CC[C@H](C)[C@@H](OC(=O)N2CCN(C)CC2)/C=C/[C@@H]1C [Compound 95]
- IC50 [1, 4]: 10.3 nM
- IC50 [1, 5]: 10 nM
- IC50 (SF3b complexes): 2.32 nM
- GI50 ([2]; NCI-H1568, 72 h, read-out: CTGlo-ATS GMean GI50 (nM) 72 h NCIH1568.1, NCIH1568.1 cells, 72 h): 2.51 nM
- CTGlo-ATS Mean MinResponse % 72 h NCIH1568.1 [2, 7]: −73.174%
- CTGlo-ATS Mean MinResponse % 72 h PANC0504.1 [3, 8]: −93.120%
- GI50 ([3]; Panc 05.04, 72 h, read-out: CTGlo-ATS GMean GI50 (nM) 72 h PANC0504.1, PANC0504.1 cells, 72 h): 2.59 nM

Structure (SMILES): C/C(=C\c1cc(F)cc(N2CCOCC2)c1)[C@H]1OC(=O)C[C@H](O)CC[C@@](C)(O)C(OC(=O)N2CCN(C)CC2)/C=C/[C@@H]1C (stereo in doubt) [Compound 86, [(2S,3S,4E,6R,7R,10R)-2-[(E)-1-(3-fluoro-5-morpholin-4-ylphenyl)prop-1-en-2-yl]-7,10-dihydroxy-3,7-dimethyl-12-oxo-1-oxacyclododec-4-en-6-yl] 4-methylpiperazine-1-carboxylate]
- IC50 [1, 4]: 929 nM
- IC50 [1, 5]: 89.6 nM
- IC50 (SF3b complexes): 12.2 nM
- CTGlo-ATS Mean MinResponse % 72 h NCIH1568.1 [2, 7]: −39.164%
- GI50 ([2]; read-out: CTGlo-ATS GMean GI50 (nM) 72 h NCIH1568.1, NCIH1568.1 cells, 72 h): 32.5 nM
- CTGlo-ATS Mean MinResponse % 72 h PANC0504.1 [3, 8]: −93.814%
- GI50 ([3]; read-out: CTGlo-ATS GMean GI50 (nM) 72 h PANC0504.1, PANC0504.1 cells, 72 h): 34.8 nM

Structure (SMILES): C/C(=C\c1cccc(NS(=O)(=O)C2CC2)c1)[C@H]1OC(=O)C[C@H](O)CC[C@H](C)[C@@H](OC(=O)N2CCN(C)CC2)/C=C/[C@@H]1C [Compound 216, [(2S,3S,4E,6R,7S,10R)-2-[(E)-1-[3-(cyclopropylsulfonylamino)phenyl]prop-1-en-2-yl]-10-hydroxy-3,7-dimethyl-12-oxo-1-oxacyclododec-4-en-6-yl] 4-methylpiperazine-1-carboxylate]
- IC50 [1, 4]: 11100 nM
- IC50 [1, 5]: 35.7 nM
- Ratio Ad2.1/2.2 [1]: 309.648
- IC50 (SF3b complexes): 3.32 nM
- CTGlo-ATS Mean MinResponse % 72 h NCIH1568.1 [2, 10]: −32.014%
- GI50 ([2]; NCI-H1568, read-out: CTGlo-ATS GMean GI50 (nM) 72 h NCIH1568.1, 72 h, NCIH1568.1): 47.2 nM
- CTGlo-ATS Mean MinResponse % 72 h PANC0504.1 [3, 11]: −85.005%
- GI50 ([3]; Panc 05.04, read-out: CTGlo-ATS GMean GI50 (nM) 72 h PANC0504.1, 72 h, PANC0504.1): 29 nM
